In patent US20240197760A1, “ACTIVATORS OF INTEGRATED STRESS RESPONSE PATHWAY FOR PROTECTION AGAINST FERROPTOSIS” (Burke Neurological Institute, priority 2021, published 2024):
Entries after “also recorded” stand apart in the source; their conditions may differ.

Tested on: Trib3, Chac1, Bip
Test: Expression of ATF4 target genes and chaperone Bip in mouse primary neurons
Assay type: cell-based
Conditions: 6 h, mouse primary neurons
Procedure: Total RNA was extracted from primary cortical neurons using NucleoSpin RNA II Kit (Clontech, Catalog number—740955-250). Thereafter, using the Taqman RNA-to-Ct, one step kit (Thermo Fisher Scientific, catalog number—4392938) and following the manufacturer's instructions, […] from each sample was mixed with the Taqman® Gene Expression Master Mix and Taqman® Gene Expression Assays for Creb1 (Catalog number—Mm00501607_m1), Bdnf (Catalog number—Mm04230607_s1), Rbbp4 (Catalog number—Mm00771401_g1), Bip (Catalog number—Mm00517691_m1), Trib3 (Catalog number—Mm00454879_m1), and Chac1 (Catalog number—Mm00509926_m1) with FAM labelled probe and Actin with VIC labelled probe all from Thermo Fisher Scientific on an Applied Biosystems 7500 Fast Real Time PCR System. For assessing gene expression of various specific Bdnf exons in mouse primary neurons, two step qPCR was used. Total RNA from primary cortical neurons was extracted using NucleoSpin RNA II Kit (Clontech, Catalog number—740955-250) and a total of 1.5 μg RNA was used to synthesize cDNA with the SuperScript® III First-Strand Synthesis System (Thermo Fisher Scientific, Catalog number—18080051). Quantitative RT-PCR was then performed using SYBR green (Thermo Fisher Scientific, Catalog number—4309155) on an Applied Biosystems 7500 Fast Real Time PCR System. Quantitative levels for all genes were normalized to the housekeeping gene GAPDH and expressed relative to the relevant control samples as fold change. The sequences of primers used in this part of the study were as follows: Bdnf I forward: […] (SEQ ID NO:9) and Bdnf I reverse: […] (SEQ ID NO:10); Bdnf II forward: […] (SEQ ID NO:11) and Bdnf II reverse: […] (SEQ ID NO:12); Bdnf IV forward #2: […] (SEQ ID NO:13) and Bdnf IV reverse #2: […] (SEQ ID NO:14); Bdnf VI forward: […] (SEQ ID NO:15) and Bdnf VI reverse: […] (SEQ ID NO:16); Bdnf VII forward: […] (SEQ ID NO:17) and Bdnf VII reverse: […] (SEQ ID NO:18) Bdnf IX forward: […] (SEQ ID NO:19) and Bdnf IX reverse: […] (SEQ ID NO:20); Gapdh forward #2: […] (SEQ ID NO:21) and Gapdh reverse #2: […] (SEQ ID NO: 22).

OC[C@H]1OC(O)C[C@@H](O)[C@@H]1O (stereo partly drawn) [2-DG, (4R,5S,6R)-6-(hydroxymethyl)oxane-2,4,5-triol]
expression of ATF4 target genes Trib3 and Chac1: enhanced expression; also recorded: Increase
